Key:
5xFAD mice = assay: Contextual and cued fear conditioning test; format: in vivo, mouse; settings: 10 mg/kg i.p. daily for 14 days
Description: To analyze the effect of C20 on the cognitive status of diseased mice, a contextual and cued fear conditioning test was performed in the 5xFAD mice. Two WT cohorts and two 5xFAD cohorts of eight mice each were intraperitoneally injected (every day for 14 days) with either C20 (10 mg/kg) or an equal amount of vehicle.
Six-month-old 5xFAD and WT mice were intraperitoneally injected with C20 (10 mg/kg b.w. dissolved in ethanol (13.5%) and diluted in 0.9% saline (86.5%)) or an equal volume of ethanol diluted in 0.9% saline (vehicle) once daily for 14 days. To analyze the effect of C20 on cognitive behavior, mice were subjected to hippocampus-dependent contextual fear conditioning and hippocampus independent tone fear conditioning (n = 8 mice in each group).
According to a 3-day delay fear conditioning protocol, the conditioned stimulus is presented and overlapped by the presentation of the unconditioned stimulus. The experiments were performed using a standard conditioning chamber (25 cm × 20 cm × 30 cm) with a stainless steel floor connected to an electric shock generator. The chamber was housed in a soundproof isolation cubicle. Measurements were accomplished through two cameras (Web camera FI#2.0 8mm и Webcam Logitech C200, Apples, Switzerland), connected to a computer with video freeze software (AUTO_URAI_4 developer Dr. V.V. Sizov, Institute of Experimental Medicine, Saint Petersburg, Russia, I.P. Pavlov Department of Physiology, sizoff@list.ru).
To exclude possible freezing due to the novel environment, we allowed the mice to habituate to the chamber. On day 1 (habituation), we brought mice into the habituation room and placed them into a training chamber individually for 5 min without any cue.
On day 2 (training), we placed each mouse in the conditioning chamber for 2 min without any shock or tone. Then, mice received two repetitions of a tone (500 Hz, 55 dB) that simultaneously ended with a 2 s foot shock (0.3 mA, US) with 60 s inter-trial intervals. Mice were allowed to recover after the foot-shock for an additional 60 s before being removed to their home cage.
On day 3 (testing), mice were placed back in the familiar fear conditioning chamber, but in the absence of tones and foot shocks. The freezing behavior was measured for 180 s to test contextual memory retrieval. For the tone fear retrieval trial one hour after the contextual test, mice were placed in an altered conditioning chamber with black and white striped walls, a covered floor, and a vanilla extract scent. After 180 s of baseline in an altered conditioning recording, a tone similar to the one used during the fear conditioning training was presented for 180 s. The freezing behavior before and during the tone was measured.

[1] = In vitro stability in pooled mouse blood plasma; format: in vitro ADME; settings: 1 µM, 37 °C
Description: The stability of C20 was assessed during incubation with pooled mouse plasma samples for 4 h at 37 °C. To confirm the activity of blood plasma enzymes in the control substance, propantheline (Figure 4A) was used.
The compound C20, at a final concentration of 1 μM, was incubated in mouse plasma at 37 °C with moderate shaking at 300 rpm in a shaker-incubator. After 0, 15, 30, 60 and 240 min, the samples were mixed, aliquots were obtained, and the samples were analyzed by HPLC-MS/MS. Propantheline was used as a control compound. Incubation of compounds with plasma samples was carried out in duplicate. Overall, 100% was obtained as the amount of a substance determined using a mass spectrometer in blood plasma in a 0 min incubation time period.
A total of 3 µL of 100-fold C20 or propantheline substance (0.1 mM) was added to 297 µL of blood plasma preheated to 37 °C to a final concentration of 1 µM.
Aliquots of 30 μL for the time point T = 0 were transferred into microtubes with a capacity of 1.1 mL pre-filled with 180 μL of chilled MeCN with an internal standard of Tolbutamide (IS) at a concentration of 50 ng/mL. Mixed and kept at +4 °C for 15 min. […]
The values of the areas of chromatographic peaks of substances in the studied samples normalized to the area of IS were used for calculations. The 100% of the tested substance from the initial amount was determined at T = 0 min of incubation. […]

TRPC3 = settings: cited from earlier work

initial amount remaining in mouse blood plasma ([1]; after 4 h incubation): about 62%
concentration remaining in mouse blood plasma ([1]; during the first hour of incubation): above 85%
Compound: COc1cc2c(cc1OC)C(c1cc3ccccc3oc1=O)=NC(C)(C)C2 [C20, 3-(3-,4-Dihydro-6,7-dimethoxy-3,3-dimethyl-1-isoquinolinyl)-2H-1-benzopyran-2-one]
freezing time to context (5xFAD mice; 6-month-old 5xFAD mice, 5xFAD + vehicle 33.88 ± 15.09%): 67.00 ± 17.78%
freezing time to tone (5xFAD mice; 6-month-old 5xFAD mice, 5xFAD + vehicle 37.75 ± 8.25%): 63.50 ± 13.38%
freezing time to context (5xFAD mice; WT mice, WT + vehicle 58.25 ± 19.06%): 59.63 ± 17.53%
freezing time to tone (5xFAD mice; WT mice, WT + vehicle 69.25 ± 18.19%): 67.75 ± 7.56%
activation of TRPC3 (TRPC3): does not activate TRPC3

From article PMC9653995, “New Positive TRPC6 Modulator Penetrates Blood–Brain Barrier, Eliminates Synaptic Deficiency and Restores Memory Deficit in 5xFAD Mice” (International Journal of Molecular Sciences, 2022)
